Data: ChEMBL document CHEMBL5150000, “Insights on Dengue and Zika NS5 RNA-dependent RNA polymerase (RdRp) inhibitors” (Eur J Med Chem, 2021)

Legend:
[1] = Inhibition of DENV-3 RNA-dependent RNA polymerase; set-up: species or system dengue virus type 3
[2] = Binding affinity to DENV-3 RNA-dependent RNA polymerase assessed as dissociation constant incubated for 40 sec by surface plasmon resonance analysis; set-up: species or system dengue virus type 3
dengue virus type 4 [3] = experiment: Binding affinity to DENV-4 RNA-dependent RNA polymerase assessed as change in enthalpy by ITC analysis
Nonstructural protein 5 [4] = target: T1, Nonstructural protein 5 (Dengue virus, UniProt V5TFZ2); experiment: Inhibition of DENV-4 NS5; set-up: species or system dengue virus type 4
Nonstructural protein 5 [5] = target: T1, Nonstructural protein 5; experiment: Inhibition of DENV NS5/RNA-dependent RNA polymerase
dengue virus type 2 = experiment: Antiviral activity against DENV-2 RNA-dependent RNA polymerase infected in human Huh-7 cells assessed as reduction in viral replication by RT-PCR analysis; type: functional, organism-based
Zika virus [6] = experiment: Antiviral activity against Zika virus infected in African green monkey Vero cells assessed as reduction in viral replication incubated for 24 hrs; type: functional, organism-based
Zika virus [7] = experiment: Antiviral activity against Zika virus RNA-dependent RNA polymerase infected in African green monkey Vero cells; type: functional, organism-based
[8] = Cytotoxicity against African green monkey Vero cells incubated for 4 hrs by Cell-titer glo assay; type: toxicity, cell-based; details: chlorocebus sabaeus
[9] = Selectivity index, ratio of CC50 for cytotoxicity against African green monkey Vero cells to EC50 for antiviral activity against Zika virus RNA-dependent RNA polymerase infected in African green monkey Vero cells; type: toxicity, cell-based; details: read-out: Ratio CC50/EC50
Nonstructural protein 5 [10] = target: T1, Nonstructural protein 5; experiment: Inhibition of full length His-tagged DENV-2 NS5 incubated for 1 hr; set-up: species or system dengue virus type 2
[11] = Cytotoxicity against African green monkey Vero cells; type: toxicity, cell-based; details: chlorocebus sabaeus
Dengue virus [12] = experiment: Antiviral activity against DENV NS5/RNA-dependent RNA polymerase; type: functional, organism-based
[13] = target: Nonstructural protein 5 (Dengue virus) (UniProt V5TFZ2); experiment: Binding affinity to DENV-3 NS5 assessed as gibbs free energy change; details: dengue virus type 3
Zika virus [14] = experiment: Antiviral activity against Zika virus NS5/RNA-dependent RNA polymerase; type: functional, organism-based
[15] = Inhibition of DENV RNA-dependent RNA polymerase activity; set-up: species or system Dengue virus
Dengue virus [16] = experiment: Inhibition of DENV RNA-dependent RNA polymerase relative to control; details: concentration not given here
NS5 (Zika virus) = NS5 (Zika virus) (UniProt A0A143MHK7); experiment: Inhibition of Zika virus RNA-dependent RNA polymerase relative to control; details: concentration not given here
NS5 [17] = target: T2, NS5 (Zika virus, UniProt A0A143MHK7); experiment: Inhibition of Zika virus wild type RNA-dependent RNA polymerase using ATP as substrate
Zika virus [18] = experiment: Antiviral activity against Zika virus SMGC-1 infected in human Huh-7 cells assessed as reduction in viral titer; type: functional, organism-based; details: SMGC-1, Huh-7
Dengue virus [19] = experiment: Antiviral activity against DENV RNA-dependent RNA polymerase infected in human PBMC; type: functional, organism-based
[20] = Binding affinity to DENV RNA-dependent RNA polymerase assessed as dissociation constant; set-up: species or system Dengue virus
NS5 [21] = target: T2, NS5; experiment: Inhibition of Zika virus RNA-dependent RNA polymerase activity
[22] = Inhibition of DENV RNA-dependent RNA polymerase; set-up: species or system dengue virus type 1
dengue virus type 1 = experiment: Antiviral activity against DENV-1 infected in African green monkey Vero E6 cells; type: functional, organism-based; details: Vero C1008
dengue virus type 3 = experiment: Antiviral activity against DENV-3 infected in African green monkey Vero E6 cells; type: functional, organism-based; details: Vero C1008
dengue virus type 4 [23] = experiment: Antiviral activity against DENV-4 infected in African green monkey Vero E6 cells; type: functional, organism-based; details: Vero C1008
Zika virus [24] = experiment: Antiviral activity against Zika virus infected in African green monkey Vero E6 cells; type: functional, organism-based; details: Vero C1008

T2 sequence (A0A143MHK7 whole entry): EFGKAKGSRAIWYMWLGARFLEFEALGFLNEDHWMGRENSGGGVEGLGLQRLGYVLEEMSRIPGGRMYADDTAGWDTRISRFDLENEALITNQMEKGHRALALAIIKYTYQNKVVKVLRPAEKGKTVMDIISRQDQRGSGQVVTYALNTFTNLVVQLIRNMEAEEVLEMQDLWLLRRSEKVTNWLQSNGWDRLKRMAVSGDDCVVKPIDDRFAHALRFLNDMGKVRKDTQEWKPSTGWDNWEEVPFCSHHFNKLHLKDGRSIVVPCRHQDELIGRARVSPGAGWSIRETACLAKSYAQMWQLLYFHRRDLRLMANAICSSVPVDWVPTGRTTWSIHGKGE
Chain of NS5 (Zika virus) (A0A143MHK7 as listed by the source): as the sequence (A0A143MHK7 whole entry) above

`COc1ccc(CC(=O)O)cc1-c1ccsc1` gave an IC50 [1] of 205 nM, a Kd [2] of 67000 nM and a deltaH (dengue virus type 4 [3]) of -7.7 kcal/mol. For the same compound, the IC50 (Nonstructural protein 5 [4]) was 210000 nM.

`O=C(N[C@@H](Cc1cccc(O)c1)C(=O)O)c1cc(-c2ccccc2)c(=O)n2c1sc1ccc(C3CCCCC3)cc12` showed an EC50 (dengue virus type 2) of 2900 nM and an EC50 (Zika virus [6]) of 800 nM.

For `O=C(O)CCNC(=O)c1cc(-c2ccccc2)c(=O)n2c1sc1ccc(C3CCCCC3)cc12`, the EC50 (dengue virus type 2) was 3500 nM and the EC50 (Zika virus [6]) was 1000 nM.

For `COc1ccc(CC(=O)O)cc1-c1cccs1`, the IC50 [1] was 144 nM, the Kd [2] was 29000 nM and the deltaH (dengue virus type 4 [3]) was -5.96 kcal/mol. For the same compound, the IC50 (Nonstructural protein 5 [4]) was 140000 nM.

With `O=C(NC(=S)Nc1ccc(N2CCN(C(=O)c3cccs3)CC2)cc1)c1sc2ccccc2c1Cl` the EC50 (Zika virus [7]) was 94 nM, the CC50 at 4 h [8] was 19400 nM and the selectivity ratio [9] was 206.

`O=C1N/C(=N\c2nnc(-c3cccc(F)c3)s2)S/C1=C\c1cccc(F)c1` gave an IC50 (Nonstructural protein 5 [10]) of 2300 nM.

`CCCC/C=C/C#CC#CCCCCCCCC(=O)O` [EXOCARPIC ACID] showed a CC50 [11] of 23000 nM and an IC50 (Dengue virus [12]) of 2200 nM.

`O=C1N=C(SCC(=O)N2CCN(c3ccc(F)cc3)CC2)N=C2CCN(Cc3ccccc3)C[C@H]12` showed a deltaG [13] of -6.43 kcal/mol.

Work on `O[C@H]1[C@H]2c3cc4c(cc3CN3CCC(=C[C@@H]1O)[C@H]23)OCO4` [LYCORINE] yielded an EC50 (Zika virus [14]) of 390 nM and a CC50 [11] of 21000 nM.

`C[C@@]1(F)[C@H](O)[C@@H](COP(=O)(O)OP(=O)(O)OP(=O)(O)O)O[C@H]1n1ccc(N)nc1=O` [PSI-6130-TP] showed an IC50 [15] of 1600 nM, an inhibition (Dengue virus [16]) of 85% and an inhibition (NS5 (Zika virus)) of 67.4%.

With `CCNC(=O)Cn1cnc(NC(=O)c2cc(-c3ccc(C)cc3)nc3onc(C)c23)n1` the IC50 (NS5 [17]) was 1130 nM, the EC50 (Zika virus [18]) was 7430 nM and the deltaG [13] was -10.5 kcal/mol.

`C#C[C@]1(O)[C@H](n2ccc(=O)[nH]c2=O)O[C@](F)(CO[P@](=O)(N[C@@H](C)C(=O)OC(C)C)Oc2ccccc2)[C@H]1O` showed an EC50 (Dengue virus [19]) of 370 nM.

In the case of `Cc1ccc(C2N(c3ccccc3)CC3=C(CC(C)(C)CC3=O)N2c2ccccc2)cc1` (centres undefined), the Kd [20] is reported as 900 nM.

Work on `C[C@@]1(O)[C@H](O)[C@@H](COP(=O)(O)OP(=O)(O)OP(=O)(O)O)O[C@H]1n1cnc2c(N)ncnc21` yielded an IC50 (NS5 [21]) of 5260 nM.

In the case of `Nc1cc(C(F)(F)F)ccc1NC(=O)Nc1cccc(S(=O)(=O)Nc2ccc(C(=O)O)cc2)c1`, the IC50 [22] is reported as 91000 nM.

Work on `O=C(Nc1nc(-c2cccc3ccccc23)n[nH]1)C1=CNc2ccccc2N1` yielded a deltaG [13] of -4.89 kcal/mol.

`O=C(NCc1ccc(O)cc1)c1cc(-c2ccccc2)c(=O)n2c1sc1ccc(C3CCCCC3)cc12` gave an EC50 (dengue virus type 2) of 1800 nM and an EC50 (Zika virus [6]) of 1000 nM.

In the case of `COc1ccc(-c2cc(C(=O)N[C@@H](Cc3ccc(O)cc3)C(=O)O)c3sc4ccc(OC5CCCCC5)cc4n3c2=O)cc1F`, the EC50 (dengue virus type 1) is reported as 5100 nM, the EC50 (dengue virus type 3) is reported as 3500 nM and the EC50 (dengue virus type 4 [23]) is reported as 2900 nM. For the same compound, the EC50 (Zika virus [24]) was 10700 nM.
